Counter-ions that a name gives are not always drawn.

A word on the melting point: it is the temperature, or range, at which the solid turns liquid.

As to `Cl.O=C1O[C@@H](Cn2ccnn2)CN1c1ccc(-c2ccc(C3=NO[C@@H](CN4CCOCC4)C3)nc2)c(F)c1`, the melting point was in the range of 239 to 245 °C.
The result for `Cl.O=C1O[C@@H](Cn2ccnn2)CN1c1ccc(-c2ccc(C3=NO[C@H](CN4CCOCC4)C3)nc2)c(F)c1` reads 242 °C; that for `O=C1O[C@@H](Cn2ccnn2)CN1c1ccc(-c2ccc(C3=NO[C@H](CN4CCCC4)C3)nc2)c(F)c1` (as salt: hydrochloride) [Example 12], 260 to 263 °C.
In turn, `O=C1O[C@@H](Cn2ccnn2)CN1c1ccc(-c2ccc(C3=NO[C@H](CN4CCCCC4)C3)nc2)c(F)c1` (as salt: hydrochloride) [Example 13, (5R)-3-(3-Fluoro-4-{6-[(5S)-5-(piperidin-1-ylmethyl)-4,5-dihydroisoxazol-3-yl]pyridin-3-yl}phenyl)-5-(1H-1,2,3-triazol-1-ylmethyl)-1,3-oxazolidin-2-one] came in with a melting point of 211 to 215 °C.
Take `O=C1O[C@@H](Cn2ccnn2)CN1c1ccc(-c2ccc(C3=NO[C@H](CN4CC=CCC4)C3)nc2)c(F)c1` (as salt: hydrochloride) [Example 14, (5R)-3-(4-{6-[(5S)-5-(3,6-Dihydropyridin-1(2H)-ylmethyl)-4,5-dihydroisoxazol-3-yl]pyridin-3-yl}-3-fluorophenyl)-5-(1H-1,2,3-triazol-1-ylmethyl)-1,3-oxazolidin-2-one]: the melting point lay within 250 to 255 °C.
Compound `CN(C)CC(=O)NC[C@@H]1CC(c2ccc(-c3ccc(N4C[C@H](Cn5ccnn5)OC4=O)cc3F)cn2)=NO1` (as salt: hydrochloride) [Example 17, N^1-{[(5S)-3-(5-{2-Fluoro-4-[(5R)-2-oxo-5-(1H-1,2,3-triazol-1-ylmethyl)-1,3-oxazolidin-3-yl]phenyl}pyridin-2-yl)-4,5-dihydroisoxazol-5-yl]methyl}-N^2,N^2-dimethylglycinamide hydrochloride] gave a melting point of 202 to 204 °C.
In turn, `O=C(NC[C@@H]1CC(c2ccc(-c3ccc(N4C[C@H](Cn5ccnn5)OC4=O)cc3F)cn2)=NO1)[C@@H]1CCCN1` (as salt: hydrochloride) [Example 20, N-{[(5S)-3-(5-{2-Fluoro-4-[(5R)-2-oxo-5-(1H-1,2,3-triazol-1-ylmethyl)-1,3-oxazolidin-3-yl]phenyl}pyridin-2-yl)-4,5-dihydroisoxazol-5-yl]methyl}-L-prolinamide hydrochloride] gave a melting point of 246 to 249 °C.
The compound `CC(C)[C@@H](N)C(=O)NC[C@@H]1CC(c2ccc(-c3ccc(N4C[C@H](Cn5ccnn5)OC4=O)cc3F)cn2)=NO1` (as salt: hydrochloride) [Example 21, N^1-{[(5S)-3-(5-{2-Fluoro-4-[(5R)-2-oxo-5-(1H-1,2,3-triazol-1-ylmethyl)-1,3-oxazolidin-3-yl]phenyl}pyridin-2-yl)-4,5-dihydroisoxazol-5-yl]methyl}-D-valinamide hydrochloride] gave a melting point of 130 to 134 °C.
Take `C[C@H](N)C(=O)NC[C@@H]1CC(c2ccc(-c3ccc(N4C[C@H](Cn5ccnn5)OC4=O)cc3F)cn2)=NO1` (as salt: hydrochloride) [Example 22, N^1-{[(5S)-3-(5-{2-fluoro-4-[(5R)-2-oxo-5-(1H-1,2,3-triazol-1-ylmethyl)-1,3-oxazolidin-3-yl]phenyl}pyridin-2-yl)-4,5-dihydroisoxazol-5-yl]methyl}-L-alaninamide hydrochloride]: the melting point was 242 to 244 °C.
For `CN(C)CC(=O)N(C)C[C@@H]1CC(c2ccc(-c3ccc(N4C[C@H](Cn5ccnn5)OC4=O)cc3F)cn2)=NO1` (as salt: hydrochloride) [Example 23, N^1-{[(5S)-3-(5-{2-fluoro-4-[(5R)-2-oxo-5-(1H-1,2,3-triazol-1-ylmethyl)-1,3-oxazolidin-3-yl]phenyl}pyridin-2-yl)-4,5-dihydroisoxazol-5-yl]methyl}-N^1,N^2,N^2-trimethylglycinamide], the melting point lay within 122 to 132 °C.
The result for `O=C1O[C@@H](Cn2ccnn2)CN1c1ccc(-c2ccc(C3=NO[C@H](CN4CCOCC4)C3)nc2)c(F)c1` (as salt: sulfonic acid salt) [Example 3c, (5R)-3-(3-Fluoro-4-{6-[(5S)-5-(morpholin-4-ylmethyl)-4,5-dihydroisoxazol-3-yl]pyridin-3-yl}phenyl)-5-(1H-1,2,3-triazol-1-ylmethyl)-1,3-oxazolidin-2-one, methanesulfonic acid salt] reads 165 to 168 °C.
`N[C@@H](CCC(=O)O)C(=O)NC[C@@H]1CC(c2ccc(-c3ccc(N4C[C@H](Cn5ccnn5)OC4=O)cc3F)cn2)=NO1` (racemic) [Example 29, N^1-{[(5S)-3-(5-{2-Fluoro-4-[(SR)-2-oxo-5-(1H-1,2,3-triazol-1-ylmethyl)-1,3-oxazolidin-3-yl]phenyl}pyridin-2-yl)-4,5-dihydroisoxazol-5-yl]methyl}-L-α-glutamine] came in with a melting point of 215 to 217 °C.
For `CN(C)C[C@@H]1CC(c2ccc(-c3ccc(N4C[C@H](Cn5ccnn5)OC4=O)cc3F)cn2)=NO1` [Example 1, (5R)-3-[4-(6-{(5S)-5-[(Dimethylamino)methyl]-4,5-dihydroisoxazol-3-yl}pyridin-3-yl)-3-fluorophenyl]-5-(1H-1,2,3-triazol-1-ylmethyl)-1,3-oxazolidin-2-one] the value was 212 °C; for `CNC[C@@H]1CC(c2ccc(-c3ccc(N4C[C@H](Cn5ccnn5)OC4=O)cc3F)cn2)=NO1` [Example 2], 215 °C.
`Br.O=C1O[C@@H](Cn2ccnn2)CN1c1ccc(-c2ccc(C3=NO[C@H](CN4CCOCC4)C3)nc2)c(F)c1` [Example 3b]: the melting point is > 280 °C (dec.).
`CN1CCN(C[C@@H]2CC(c3ccc(-c4ccc(N5C[C@H](Cn6ccnn6)OC5=O)cc4F)cn3)=NO2)CC1` [Example 4, (5R)-3-[3-Fluoro-4-(6-{(5S)-5-[(4-methylpiperazin-1-yl)methyl]-4,5-dihydroisoxazol-3-yl}pyridin-3-yl)phenyl]-5-(1H-1,2,3-triazol-1-ylmethyl)-1,3-oxazolidin-2-one] returned a melting point of 218 °C.
For `O=C1O[C@@H](Cn2ccnn2)CN1c1ccc(-c2ccc(C3=NO[C@H](CNCCO)C3)nc2)c(F)c1` [Example 5, (5R)-3-{3-Fluoro-4-[6-((5S)-5-{[(2-hydroxyethyl)amino]methyl}-4,5-dihydroisoxazol-3-yl)pyridin-3-yl]phenyl}-5-(1H-1,2,3-triazol-1-ylmethyl)-1,3-oxazolidin-2-one], the melting point turned out to be 190 °C.
`CCCCNC[C@@H]1CC(c2ccc(-c3ccc(N4C[C@H](Cn5ccnn5)OC4=O)cc3F)cn2)=NO1` [Example 6, (5R)-3-[4-(6-{(5S)-5-[(Butylamino)methyl]-4,5-dihydroisoxazol-3-yl}pyridin-3-yl)-3-fluorophenyl]-5-(1H-1,2,3-triazol-1-ylmethyl)-1,3-oxazolidin-2-one] came in with a melting point of 230 °C.
Compound `O=C1O[C@@H](Cn2ccnn2)CN1c1ccc(-c2ccc(C3=NO[C@H](CN4CCSCC4)C3)nc2)c(F)c1` [Example 7, (5R)-3-(3-Fluoro-4-{6-[(5S)-5-(thiomorpholin-4-ylmethyl)-4,5-dihydroisoxazol-3-yl]pyridin-3-yl}phenyl)-5-(1H-1,2,3-triazol-1-ylmethyl)-1,3-oxazolidin-2-one] came in with a melting point of 222 to 225 °C.
For `O=C1O[C@@H](Cn2ccnn2)CN1c1ccc(-c2ccc(C3=NO[C@H](CN4CC[S+]([O-])CC4)C3)nc2)c(F)c1` [Example 8, (5R)-3-[3-Fluoro-4-(6-{(5S)-5-[(1-oxidothiomorpholin-4-yl)methyl]-4,5-dihydroisoxazol-3-yl}pyridin-3-yl)phenyl]-5-(1H-1,2,3-triazol-1-ylmethyl)-1,3-oxazolidin-2-one] the value was 218 to 220 °C; for `O=C1O[C@@H](Cn2ccnn2)CN1c1ccc(-c2ccc(C3=NO[C@H](CN4CCS(=O)(=O)CC4)C3)nc2)c(F)c1` [Example 9, (5R)-3-[4-(6-{(5S)-5-[(1,1-Dioxidothiomorpholin-4-yl)methyl]-4,5-dihydroisoxazol-3-yl}pyridin-3-yl)-3-fluorophenyl]-5-(1H-1,2,3-triazol-1-ylmethyl)-1,3-oxazolidin-2-one], 200 to 203 °C; for `CN(CCO)C[C@@H]1CC(c2ccc(-c3ccc(N4C[C@H](Cn5ccnn5)OC4=O)cc3F)cn2)=NO1` [Example 10, (5R)-3-[3-Fluoro-4-[6-((5S)-5-{[(2-hydroxyethyl)(methyl)amino]methyl]-4,5-dihydroisoxazol-3-yl)pyridin-3-yl]phenyl}-5-(1H-1,2,3-triazol-1-ylmethyl)-1,3-oxazolidin-2-one], 153 to 156 °C.
Take `O=C1O[C@@H](Cn2ccnn2)CN1c1ccc(-c2ccc(C3=NO[C@@H](CN4CCOCC4)C3)nc2)c(F)c1` [Example 11, (5R)-3-(3-Fluoro-4-{6-[(5R)-5-(morpholin-4-ylmethyl)-4,5-dihydroisoxazol-3-yl]pyridin-3-yl}phenyl)-5-(1H-1,2,3-triazol-1-ylmethyl)-1,3-oxazolidin-2-one]: the melting point fell in the range of 239 to 245 °C.
Compound `CC(C)(C)OC(=O)NC[C@@H]1CC(c2ccc(-c3ccc(N4C[C@H](Cn5ccnn5)OC4=O)cc3F)cn2)=NO1` [Example 15, tert-Butyl {[(5S)-3-(5-{2-fluoro-4-[(5R)-2-oxo-5-(1H-1,2,3-triazol-1-ylmethyl)-1,3-oxazolidin-3-yl]phenyl}pyridin-2-yl)-4,5-dihydroisoxazol-5-yl]methyl}carbamate] registered a melting point of 228 to 230 °C.
In turn, `CN(CC(=O)OC(C)(C)C)C[C@@H]1CC(c2ccc(-c3ccc(N4C[C@H](Cn5ccnn5)OC4=O)cc3F)cn2)=NO1` [Example 18, tert-Butyl N-{[(5S)-3-(5-{2-fluoro-4-[(5R)-2-oxo-5-(1H-1,2,3-triazol-1-ylmethyl)-1,3-oxazolidin-3-yl]phenyl}pyridin-2-yl)-4,5-dihydroisoxazol-5-yl]methyl}-N-methylglycinate] registered a melting point of 180 °C.
As for `CN(CC(=O)O)C[C@@H]1CC(c2ccc(-c3ccc(N4C[C@H](Cn5ccnn5)OC4=O)cc3F)cn2)=NO1` [Example 19, N-{[(5S)-3-(5-{2-Fluoro-4-[(5R)-2-oxo-5-(1H-1,2,3-triazol-1-ylmethyl)-1,3-oxazolidin-3-yl]phenyl}pyridin-2-yl)-4,5-dihydroisoxazol-5-yl]methyl}-N-methylglycine], the melting point was in the range of 212 to 218 °C.

(Values after patent US20080064689A1, “3-[4-(6-Pyridin-3-Yl)-3-Phenyl] -5-(1H-1,2,3-Triazol-1-Ylmethyl)-1,3-Oxazolidin-2-Ones as Antibacterial Agents” (AstraZeneca AB, priority 2004, published 2008).)
